Each compound was assayed against LFA-1 (Homo sapiens, UniProt P20701) (assay: Affinity (KD) of derivatives for LFA-1). Settings: affinity for LFA-1; read-out: KD (Affinity constant).
Type: binding

LFA-1, sequence (P20701 26-1170): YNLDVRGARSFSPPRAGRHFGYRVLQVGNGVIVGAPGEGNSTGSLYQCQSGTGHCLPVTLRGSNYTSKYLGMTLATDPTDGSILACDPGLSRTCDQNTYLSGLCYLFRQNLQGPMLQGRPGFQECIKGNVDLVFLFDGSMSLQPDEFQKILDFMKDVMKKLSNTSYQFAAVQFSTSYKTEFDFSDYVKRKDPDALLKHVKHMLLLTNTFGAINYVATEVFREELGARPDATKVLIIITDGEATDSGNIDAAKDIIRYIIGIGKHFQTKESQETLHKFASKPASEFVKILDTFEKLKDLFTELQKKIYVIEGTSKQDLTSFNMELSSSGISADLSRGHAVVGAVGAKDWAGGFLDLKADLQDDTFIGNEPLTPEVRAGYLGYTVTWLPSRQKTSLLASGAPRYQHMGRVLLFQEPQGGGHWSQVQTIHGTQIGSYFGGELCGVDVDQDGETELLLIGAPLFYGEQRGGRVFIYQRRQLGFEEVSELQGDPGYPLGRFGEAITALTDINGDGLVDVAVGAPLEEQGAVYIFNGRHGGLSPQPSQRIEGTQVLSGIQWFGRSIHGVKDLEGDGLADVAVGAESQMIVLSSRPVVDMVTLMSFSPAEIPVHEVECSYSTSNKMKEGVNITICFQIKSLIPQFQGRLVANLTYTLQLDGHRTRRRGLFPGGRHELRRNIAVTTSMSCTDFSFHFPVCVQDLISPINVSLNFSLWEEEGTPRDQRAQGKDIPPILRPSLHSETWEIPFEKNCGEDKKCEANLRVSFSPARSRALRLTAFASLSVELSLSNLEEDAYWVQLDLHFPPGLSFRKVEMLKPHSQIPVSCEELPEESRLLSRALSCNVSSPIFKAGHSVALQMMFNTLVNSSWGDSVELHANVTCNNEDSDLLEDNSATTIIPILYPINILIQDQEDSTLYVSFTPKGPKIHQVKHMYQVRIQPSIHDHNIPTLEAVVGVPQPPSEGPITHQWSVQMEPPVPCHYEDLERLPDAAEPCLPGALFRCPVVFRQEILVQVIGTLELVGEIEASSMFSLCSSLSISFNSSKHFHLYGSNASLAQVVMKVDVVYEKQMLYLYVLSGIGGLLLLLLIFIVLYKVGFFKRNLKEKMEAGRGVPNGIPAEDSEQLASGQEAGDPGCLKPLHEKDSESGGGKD
LFA-1, sequence (P05107 23-769 partner): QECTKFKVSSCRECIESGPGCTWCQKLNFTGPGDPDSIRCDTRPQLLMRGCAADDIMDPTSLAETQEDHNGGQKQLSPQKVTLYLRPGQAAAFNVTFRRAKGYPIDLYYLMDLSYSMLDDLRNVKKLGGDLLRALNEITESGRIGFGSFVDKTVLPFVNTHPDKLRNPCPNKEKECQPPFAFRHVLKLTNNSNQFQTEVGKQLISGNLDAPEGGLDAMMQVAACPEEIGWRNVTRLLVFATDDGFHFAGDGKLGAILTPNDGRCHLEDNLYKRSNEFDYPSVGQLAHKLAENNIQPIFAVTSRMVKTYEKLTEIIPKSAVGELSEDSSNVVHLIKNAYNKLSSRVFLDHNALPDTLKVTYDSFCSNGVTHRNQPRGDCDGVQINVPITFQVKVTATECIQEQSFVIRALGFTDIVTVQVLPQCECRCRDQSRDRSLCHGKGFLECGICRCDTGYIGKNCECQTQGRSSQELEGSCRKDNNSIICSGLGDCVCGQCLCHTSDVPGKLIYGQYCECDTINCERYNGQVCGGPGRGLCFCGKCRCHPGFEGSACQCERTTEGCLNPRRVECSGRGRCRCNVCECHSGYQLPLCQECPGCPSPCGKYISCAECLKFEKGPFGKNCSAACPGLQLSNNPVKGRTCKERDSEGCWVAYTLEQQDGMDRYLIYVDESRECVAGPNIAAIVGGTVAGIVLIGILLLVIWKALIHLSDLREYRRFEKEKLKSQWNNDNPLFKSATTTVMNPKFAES

Kd	Compound
0.115 µM	5-(4-bromobenzyl)-3-(3,5-dichlorophenyl)-5-methyl-imidazolidine-2,4-dione-1-(1-butyl-4-fluoresceincarbamide) [Fluorescein- Butylamino- Nor-BIRT]
0.075 µM	C[C@@]1(Cc2ccc(Br)cc2)C(=O)N(c2cc(Cl)cc(Cl)c2)C(=O)N1CCCCN [Butylamino- Nor-BIRT, 1-(4-aminobutyl)-5-(4-bromobenzyl)-3-(3,5-dichlorophenyl)-5-methyl-imidazolidine-2,4-dione]
3.65 µM	O=C1N[C@@H](Cc2ccccc2)C(=O)N1c1cc(Cl)cc(Cl)c1 [JEB I-18]
0.62 µM	O=C1N[C@H](Cc2ccccc2)C(=O)N1c1cc(Cl)cc(Cl)c1 [JEB I-19]
1.23 µM	CN1C(=O)N(c2cc(Cl)cc(Cl)c2)C(=O)[C@H]1Cc1ccccc1 [JEB I-22]
1.2 µM	CN1C(=O)N(c2cc(Cl)cc(Cl)c2)C(=O)[C@@H]1Cc1ccccc1 [JEB I-24]
